Experimental data taken from US8232299B2, “Phthalimide derivatives that influence cellular vesicular systems, pharmaceutical compositions, and use thereof” (Avidin Kft., priority 2007, dated 2012).

Legend:
[1] = Japanese patent JP10072346; cited from earlier work
tumor necrosis factor = details: Japanese patent application JP10072346; cited from earlier work
human melanoma (HT168M1) = test: subcutaneous melanoma tumor model; type: in vivo, CB17/scid mice; details: 40 mg/kg per os, once a day five days per week for 3 weeks from day 7; FIG. 8
Method: Slightly anesthetized (diethyl ether narcosis) adult male CB17/scid mice born with immunodeficiency were subcutaneously (s.c.) implanted with 8×10^5 cells from in vitro human melanoma (HT168M1) cultures. After tumor cell inoculation animals were randomly assigned into three groups and their ears were marked. From the 7th day after the tumor cell inoculation mice were treated once a day five days per week for 3 weeks with compound 2 (40 mg/kg), or with compound 3b (40 mg/kg) per os by gavage. Control animals were treated with appropriate dilution of the carrier (DMSO) in a similar manner with similar frequency. Body weight changes were monitored once a week for each animal. When subcutaneous tumor reached palpable size its dimensions were also detected with caliper. Tumor volume was estimated by the formula π/6×a×b^2, where “a” is the longer and “b” is the shorter diameter. 30 days after implantation animals were sacrificed by bleeding in Nembutal (75 mg/kg) anesthesia. Evaluation was based on the mass of the primary tumor.
In this experiment the effect of compound 2 and compound 3b was tested in oral administration at the same dose (40 mg/kg).

SMILES: CC(C)c1cccc(C(C)C)c1N1C(=O)c2c(F)c(F)c(F)c(F)c2C1=O [Compound 2, 2-(2,6-diizopropylphenyl)-4,5,6,7-tetrafluorisoindolin-1,3-dione]
- anti-inflammatory effect [1]: has anti-inflammatory effect
- production of tumor necrosis factor (tumor necrosis factor): inhibits the production of tumor necrosis factor
- effect on growth of the subcutaneous primary tumor (tumor mass) (human melanoma (HT168M1)): not significant
